# Source: patent US20160137746A1, “METHODS FOR TREATING HIGH CARDIOVASCULAR RISK PATIENTS WITH HYPERCHOLESTEROLEMIA” (Sanofi Biotechnology, priority 2014, published 2016)
# What was measured:
# [1] = tested on: high cardiovascular risk patients with hypercholesterolemia; assay: ODYSSEY COMBO II: lipid efficacy of alirocumab vs ezetimibe, add-on to maximally tolerated statin; assay type: in vivo, human; details: for Calculated LDL-C percent change from baseline, LS mean (SE): ITT population, MMRM, alirocumab 75 Q2W/Up150 Q2W, ezetimibe 10
# Excerpt: Each of the COMBO studies was randomized, double-blinded, and placebo-controlled.
# The primary efficacy endpoint for each study was the difference between treatment arms in the percent change in LDL-C from baseline to Week 24.
# Apo, apolipoprotein; HDL-C, high-density lipoprotein cholesterol; ITT, intent-to-treat; LDL-C, low-density lipoprotein cholesterol; Lp(a), lipoprotein (a); TG, triglycerides.
# COMBO II was a Phase 3, randomized, double-blind, active-controlled, parallel-group, multinational 104-week study. The study enrolled high-risk patients with uncontrolled hypercholesterolemia on stable, maximally tolerated daily statin therapy. Unlike COMBO I, with a placebo arm, COMBO II incorporated an active-treatment arm (ezetimibe) with double-dummy design (FIG. 1B) and patients were not allowed to receive any other lipid lowering therapies besides statin and their randomized treatment.
# After randomization, patients entered a double-blind, double-dummy treatment period of 104 weeks.
# Primary analyses of efficacy endpoints were conducted using an ITT approach (based on the ITT population defined above), including all lipid data, regardless of whether the patient was continuing therapy or not. This corresponds to ITT estimands, defined for primary and key secondary endpoints. In addition, analyses were also conducted using an on-treatment approach (based on the mITT population defined above), including lipid data collected during the efficacy treatment period. This corresponds to on-treatment estimands of key secondary endpoints.
# With regards to the primary efficacy analysis (ITT approach), the percent change in calculated LDL-C from baseline to Week 24 was analyzed using a mixed-effect model with repeated measures (MMRM) approach.
# [2] = tested on: high cardiovascular risk patients with hypercholesterolemia; assay: ODYSSEY COMBO II: safety (TEAEs, adjudicated CV events, laboratory parameters, low LDL-C)
# Description: (§1) Safety assessments during both studies were as follows. Safety was assessed through adverse event (AE) reporting (including adjudicated cardiovascular events), laboratory analyses, and vital signs measurement. Since the LDL-C-lowering effects of PCSK9 inhibition on top of a statin are unknown, a number of AEs were defined as being of special interest and were monitored, including alanine aminotransferase abnormalities, allergic events, hemolytic anemia, pregnancy, overdose with study drug, neurologic events, ophthalmic events, and local injection site reactions.
# (§2) Safety Analyses were as follows. AEs (including adjudicated cardiovascular events), laboratory parameters, and vital signs were reported descriptively, based on the safety population (all randomized patients who received at least 1 dose or partial dose of study treatment). The safety analysis focused on the treatment-emergent AE period defined as the time from the first double-blind dose to the last double-blind dose of the investigational product +70 days (10 weeks).
# (§3) The safety population included all randomized patients who received at least one dose or part of a dose of the double-blind IMP.
# (§4) Safety analyses were descriptive, performed on the safety population according to treatment actually received. For analysis of TEAE and PCSA, the safety analysis focused on the TEAE period defined as the time from the first dose of double-blind IMP administration (capsule or injection, whichever comes first) up to 70 days after the last double-blind injection.
# [3] = tested on: high cardiovascular risk patients with hypercholesterolemia; details: human, in vivo, 52 weeks
# Description: as §1, §2, §3, §4
# [4] = safety population at 52 weeks, all patients, number (%) of patients
# [5] = treatment period, safety population
smiles,measurement,setting,value
"O=C1[C@H](CC[C@H](O)c2ccc(F)cc2)[C@@H](c2ccc(O)cc2)N1c1ccc(F)cc1 [Ezetimibe, ezetimibe, reference compound]","Achieved LDL-C, median","[1]; 24 weeks, FIG. 7",70 mg/dL
same,"Calculated LDL-C, LS mean (SE) percent change from baseline","[1]; ITT, Week 24",−20.7 (1.9) %
same,"Fasting TGs, LS mean percent change from baseline","[1]; ITT, Week 24",−12.8%
same,"Calculated LDL-C, LS mean (SE) percent change from baseline","[1]; ITT, Week 24, listed as ezetimibe",−20.7%
same,"Calculated LDL-C percent change from baseline, LS mean (SE)",[1]; Week 4,−25.3 (1.6) %
same,"Calculated LDL-C percent change from baseline, LS mean (SE)",[1]; Week 8,−24.3 (1.7) %
same,"Calculated LDL-C percent change from baseline, LS mean (SE)",[1]; Week 12,−21.8 (1.8) %
same,"Calculated LDL-C percent change from baseline, LS mean (SE)",[1]; Week 16,−23.0 (1.8) %
same,Fasting TGs reduced from baseline,[1]; Week 24,13.3%
same,Mean achieved LDL-C,[1]; Week 24,82.5 (2.0) mg/dL
same,"Calculated LDL-C percent change from baseline, LS mean (SE)",[1]; Week 24,−20.7 (1.9) %
same,"Apo-B - Percent change from baseline to Week 24, LS mean vs. baseline","[1]; Week 24, On-treatment analysis",−19.1 (1.4)
same,"Calculated LDL-C - Percent change from baseline to Week 24, LS mean vs. baseline","[1]; Week 24, On-treatment analysis",−21.8 (1.8) %
same,"Non-HDL-C - Percent change from baseline to Week 24, LS mean vs. baseline","[1]; Week 24, On-treatment analysis",−20.2 (1.6)
same,HDL-C percent change from baseline to week 24,"[1]; Week 24, on-treatment analysis",0.8 (1.1)
same,Lipoprotein(a) percent change from baseline to week 24,"[1]; Week 24, on-treatment analysis",−5.6 (1.9)
same,Total cholesterol percent change from baseline to week 24,"[1]; Week 24, on-treatment analysis",−15.2 (1.2)
same,Triglycerides (fasted) percent change from baseline to week 24,"[1]; Week 24, on-treatment analysis",−13.3 (2.0)
same,"Calculated LDL-C percent change from baseline, LS mean (SE)",[1]; Week 36,−19.3 (2.0) %
same,"Calculated LDL-C percent change from baseline, LS mean (SE)",[1]; Week 52,−18.3 (2.1) %
same,Adjudicated cardiovascular events,[2]; in vivo,3.7%
same,SOC gastrointestinal disorders,[2]; in vivo,13.7%
same,SOC infections and infestations,[2]; in vivo,25.3%
same,SOC musculoskeletal and connective tissue disorders,[2]; in vivo,17.0%
same,Treatment-emergent local injection site reactions,[2]; in vivo,0.8%
same,Patients who experienced at least one TEAE,[2]; mean 58 weeks' follow-up,67.2%
same,Serious adverse event,[2]; mean 58 weeks' follow-up,17.8%
same,TEAE leading to death,[2]; mean 58 weeks' follow-up,4 (1.7%) n (%)
same,TEAEs leading to treatment discontinuation,[2]; mean 58 weeks' follow-up,5.4%
same,Laboratory parameters: Blood glucose increased,[2]; [4],3 (1.2)
same,Laboratory parameters: Hemoglobin decreased,[2]; [4],2 (0.8)
same,Patients experiencing any TEAE,[2]; [4],162 (67.2)
same,TEAE preferred term: Accidental overdose,[2]; [4],16 (6.6)
same,TEAE preferred term: Angina pectoris,[2]; [4],11 (4.6)
same,TEAE preferred term: Arthralgia,[2]; [4],9 (3.7)
same,TEAE preferred term: Dizziness,[2]; [4],13 (5.4)
same,TEAE preferred term: Headache,[2]; [4],10 (4.1)
same,TEAE preferred term: Hypertension,[2]; [4],10 (4.1)
same,TEAE preferred term: Myalgia,[2]; [4],12 (5.0)
same,TEAE preferred term: Nasopharyngitis,[2]; [4],9 (3.7)
same,TEAE preferred term: Upper respiratory tract infection,[2]; [4],14 (5.8)
same,TEAE system organ class: Blood and lymphatic system disorders,[2]; [4],8 (3.3)
same,TEAE system organ class: Cardiac disorders,[2]; [4],29 (12.0)
same,TEAE system organ class: Eye disorders,[2]; [4],9 (3.7)
same,TEAE system organ class: Gastrointestinal disorders,[2]; [4],33 (13.7)
same,TEAE system organ class: General disorders and administration site conditions,[2]; [4],26 (10.8)
same,TEAE system organ class: Infections and infestations,[2]; [4],61 (25.3)
same,"TEAE system organ class: Injury, poisoning, and procedural complications",[2]; [4],33 (13.7)
same,TEAE system organ class: Investigations,[2]; [4],21 (8.7)
same,TEAE system organ class: Metabolism and nutrition disorders,[2]; [4],18 (7.5)
same,TEAE system organ class: Musculoskeletal and connective tissue disorders,[2]; [4],41 (17.0)
same,"TEAE system organ class: Neoplasms, benign, malignant and unspecified (including cysts and polyps)",[2]; [4],7 (2.9)
same,TEAE system organ class: Nervous system disorders,[2]; [4],40 (16.6)
same,TEAE system organ class: Psychiatric disorders,[2]; [4],12 (5.0)
same,TEAE system organ class: Renal and urinary disorders,[2]; [4],13 (5.4)
same,TEAE system organ class: Reproductive system and breast disorders,[2]; [4],2 (0.8)
same,"TEAE system organ class: Respiratory, thoracic, and mediastinal disorders",[2]; [4],22 (9.1)
same,TEAE system organ class: Skin and subcutaneous tissue disorders,[2]; [4],15 (6.2)
same,TEAE system organ class: Vascular disorders,[2]; [4],20 (8.3)
same,Patients with 2 consecutive calculated LDL-C value <15 mg/dL,[2]; [5],0/230
same,Patients with 2 consecutive calculated LDL-C value <25 mg/dL,[2]; [5],0/230
same,Patients with 2 consecutive calculated LDL-C value <25 mg/dL,"[2]; treatment period, safety population, listed as ezetimibe",none
same,TEAE preferred term: Influenza,[3],7 (2.9)
